From patent US20240217963A1, “RECEPTOR-INTERACTING PROTEIN 1 INHIBITORS, PREPARATIONS, AND USES THEREOF” (SIRONAX LTD., priority 2021, published 2024)

These compounds were tested against T1, RIP1 (Homo sapiens, UniProt Q13546) (assay: Cellular RIP1 inhibitory activity: HT-29 necroptosis (TNFα/SMAC mimetic/zVAD-FMK) CellTiter-Glo viability assay). Conditions: HT-29 cells, TNF-α 10 ng/ml + SMAC mimetic 6 μM + zVAD-FMK 10 μM, 20 hours, geometric mean, read-out: EC50 Values of in vitro Cellular RIP1 Inhibitory Activity.
T1 sequence (Q13546 1-671): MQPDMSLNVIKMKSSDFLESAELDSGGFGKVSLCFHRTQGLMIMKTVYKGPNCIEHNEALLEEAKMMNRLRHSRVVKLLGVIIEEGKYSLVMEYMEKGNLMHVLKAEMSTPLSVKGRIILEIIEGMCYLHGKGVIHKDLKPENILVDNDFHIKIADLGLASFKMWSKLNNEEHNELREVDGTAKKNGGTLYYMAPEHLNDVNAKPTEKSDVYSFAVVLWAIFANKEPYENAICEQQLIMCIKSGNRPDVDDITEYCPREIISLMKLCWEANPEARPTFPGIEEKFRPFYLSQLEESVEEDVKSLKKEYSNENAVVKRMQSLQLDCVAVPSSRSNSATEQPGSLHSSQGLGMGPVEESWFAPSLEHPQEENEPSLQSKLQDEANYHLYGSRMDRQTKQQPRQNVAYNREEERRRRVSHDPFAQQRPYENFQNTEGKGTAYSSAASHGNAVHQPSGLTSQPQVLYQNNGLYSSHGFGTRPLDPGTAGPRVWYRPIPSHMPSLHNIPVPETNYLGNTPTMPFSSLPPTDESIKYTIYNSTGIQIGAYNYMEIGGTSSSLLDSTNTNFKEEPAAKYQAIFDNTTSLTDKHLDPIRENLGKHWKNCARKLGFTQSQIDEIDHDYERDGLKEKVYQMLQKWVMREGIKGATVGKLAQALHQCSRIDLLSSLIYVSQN
Type: cell-based
Protocol: Compounds 1-99 (denoted as Cmpd Nos. 1 through 99 in Table 2 below) of the disclosure were tested for binding and cellular RIP1 inhibitory activity following the experimental procedures described below. Cell Seeding • 1. HT-29 cells were checked every day to make sure that they were healthy and growing as expected. They were subjected to sub-culturing when they were approximately 80% confluent. • 2. The culture medium, McCOY's 5 A medium (Gibco, Cat No. 16600-082) with 10% fetal bovine serum or FBS (Gibco, Cat No. 10099-141C), was pre-warmed in a 37° C. water bath for at least 30 min. • 3. When the cells had reached a desired level of confluency of 80% in a T75 flask, the medium was aspirated, and the cells were washed with warm phosphate buffered saline or PBS two times. • 4. 2-3 ml fresh warm trypsin (Gibco, Cat No. 25200-056) solution was added to the washed cells. The flask with the cells was transferred to a 37° C. incubator. • 5. After 5 minutes, the side of the flask was tapped, and the flask was examined under a microscope for detachment of the cells to the flask. If necessary, the cells were kept in the incubator for an additional 5-10 minutes, with occasional tapping, until lifting was complete. • 6. The trypsin reaction was neutralized by transferring 6-9 ml cell culture medium to sterile 15 ml conical tubes, and by centrifuging the cell culture at 300×g for 7 minutes to pellet the cells (supernatant decanted). • 7. The cells were resuspended in fresh cell culture medium and the cell counting was performed using a hemocytometer. • 8. 100 μl of the resuspended cell culture medium containing ˜5,000 cells were transferred into each well of the sterile 96-well cell culture plate (Corning 3903) and cultured overnight at 37° C. with 5% CO2. Compound Titration and Treatment • 1. All test compounds were dissolved in DMSO (Dimethyl sulfoxide) to create a 20 mM stock. • 2. 3 μl of each compound 20 mM stock was mixed with 27 μl DMSO, and the compound solution was further diluted at a titration ratio of 1:3 (20 μl compound solution+40 μl DMSO) till the 10 points end. • 3. All culture medium was removed from assay plates filled with HT-29 cell cultures. […] 0.5 μL of the diluted compound solution was added to the corresponding 96-well assay plates. • 5. The assay plates were incubated for 20 hours at 37° C. with 5% CO2. Cell Viability Detection • 1. The CellTiter-Glo® Luminescent Cell Viability Assay was employed to detect the ATP levels of viable HT-29 cells. • 2. The CellTiter-Glo® buffer and the lyophilized substrate were equilibriated to room temperature prior to use. • 3. The CellTiter-Glo® substrate was resuspended with CellTiter-Glo® buffer, then mixed by gently vortexing to obtain a homogeneous solution. • 4. 20 μl the enzyme/substrate mixture was transferred by multi-channel pipetting into 96-well assay plates. • 5. The assay plates were placed on an orbital shaker and the contents were shaken for 3 minutes to induce cell lysis. • 6. The assay plates were incubated at room temperature for 10 minutes to stabilize the luminescent signal. • 7. The luminescence signals were read and recorded with EnVision. • 8. The geometric mean EC50 values were calculated from 10 points response dose with duplicates. In Table 2, activity is provided as follows: +++=0.1 nM≤EC50<100 nM; ++=100 nM≤EC50<1000 nM; +=1000 nM≤EC50<10000 nM.

Compared with `Cc1nnc(CNC(=O)C2CCN(c3ncc(F)c(-c4c(C)cnn4C)n3)CC2)s1` [Compound 46, 1-(4-(1,4-dimethyl-1H-pyrazol-5-yl)-5-fluoropyrimidin-2-yl)-N-((5-methyl-1,3,4-thiadiazol-2-yl)methyl)piperidine-4-carboxamide], `Cc1cnn(C)c1-c1nc(N2CCC(C(=O)NCc3nc(C)c(C)s3)CC2)ncc1F` [Compound 49, 1-(4-(1,4-dimethyl-1H-pyrazol-5-yl)-5-fluoropyrimidin-2-yl)-N-((4,5-dimethylthiazol-2-yl)methyl)piperidine-4-carboxamide] is lower in EC50: 1000 to 10000 nM for the first, 100 to 1000 nM for the second. The second is the more potent here.

`Cc1csc(CNC(=O)C2CCN(c3ncc(F)c(-c4c(C)cnn4C)n3)CC2)n1` [Compound 47, 1-(4-(1,4-dimethyl-1H-pyrazol-5-yl)-5-fluoropyrimidin-2-yl)-N-((4-methylthiazol-2-yl)methyl)piperidine-4-carboxamide] and `Cc1cnn(C)c1-c1nc(N2CCC(C(=O)NCc3nccs3)CC2)ncc1F` [Compound 59, 1-(4-(1,4-dimethyl-1H-pyrazol-5-yl)-5-fluoropyrimidin-2-yl)-N-(thiazol-2-ylmethyl)piperidine-4-carboxamide] fall in the same range of EC50: 100 to 1000 nM for the first, 100 to 1000 nM for the second.

`Cc1cnn(C)c1-c1nc(N2CCC(C(=O)N(O)CC3=CCCCC3)CC2)ncc1F` [Compound 48, N-(cyclohex-1-en-1-ylmethyl)-1-(4-(1,4-dimethyl-1H-pyrazol-5-yl)-5-fluoropyrimidin-2-yl)-N-hydroxypiperidine-4-carboxamide] and `Cc1cnn(C)c1-c1nc(N2CCC(C(=O)N(O)Cc3cnsc3)CC2)ncc1F` [Compound 51] fall in the same range of EC50: 0.1 to 100 nM for the first, 0.1 to 100 nM for the second.

`Cc1ncc(CNC(=O)C2CCN(c3ncc(F)c(-c4c(C)cnn4C)n3)CC2)s1` [Compound 50, 1-(4-(1,4-dimethyl-1H-pyrazol-5-yl)-5-fluoropyrimidin-2-yl)-N-((2-methylthiazol-5-yl)methyl)piperidine-4-carboxamide] and `Cc1cnn(C)c1-c1nc(N2CCC(C(=O)NCc3cncs3)CC2)ncc1F` [Compound 58] fall in the same range of EC50: 100 to 1000 nM for the first, 100 to 1000 nM for the second.

`Cc1cnn(C)c1-c1nc(N2CCC(C(=O)N(O)Cc3cncc(C#N)c3)CC2)ncc1F` [Compound 52, N-((5-cyanopyridin-3-yl)methyl)-1-(4-(1,4-dimethyl-1H-pyrazol-5-yl)-5-fluoropyrimidin-2-yl)-N-hydroxypiperidine-4-carboxamide] and `Cc1cnn(C)c1-c1nc(N2CCC(C(=O)N(C)Cc3cc(F)cc(F)c3F)CC2)ncc1F` [Compound 66, 1-(4-(1,4-dimethyl-1H-pyrazol-5-yl)-5-fluoropyrimidin-2-yl)-N-methyl-N-(2,3,5-trifluorobenzyl)piperidine-4-carboxamide] fall in the same range of EC50: 0.1 to 100 nM for the first, 0.1 to 100 nM for the second.

Compared with `Cc1cnn(C)c1-c1cc(OC2CC(C(=O)N(O)Cc3cc(F)cc(F)c3)C2)c(F)cn1` (stereo not drawn) [Compound 53], `Cc1cnn(C)c1-c1ccc(OC2CC(C(=O)N(O)Cc3cc(F)cc(F)c3)C2)c(F)n1` (stereo not drawn) [Compound 54, N-(3,5-difluorobenzyl)-3-((6-(1,4-dimethyl-1H-pyrazol-5-yl)-2-fluoropyridin-3-yl)oxy)-N-hydroxycyclobutane-1-carboxamide] is higher in EC50: 0.1 to 100 nM for the first, 100 to 1000 nM for the second. The first is the more potent here.

`Cc1cnn(C)c1-c1ncc(F)c(N2CCC(C(=O)N(O)Cc3cc(F)cc(F)c3)CC2)n1` [Compound 55, N-(3,5-difluorobenzyl)-1-(2-(1,4-dimethyl-1H-pyrazol-5-yl)-5-fluoropyrimidin-4-yl)-N-hydroxypiperidine-4-carboxamide] and `Cc1cnn(C)c1-c1nc(N2CCC(C(=O)NCc3cc(F)cc(F)c3)CC2)ncc1F` [Compound 62, N-(3,5-difluorobenzyl)-1-(4-(1,4-dimethyl-1H-pyrazol-5-yl)-5-fluoropyrimidin-2-yl)piperidine-4-carboxamide] fall in the same range of EC50: 0.1 to 100 nM for the first, 0.1 to 100 nM for the second.

First: Cc1nc(CNC(=O)C2CCN(c3ncc(F)c(-c4c(C)cnn4C)n3)CC2)c(C)s1 [Compound 56, 1-(4-(1,4-dimethyl-1H-pyrazol-5-yl)-5-fluoropyrimidin-2-yl)-N-((2,5-dimethylthiazol-4-yl)methyl)piperidine-4-carboxamide]
Second: Cc1nc(C)c(CN(C)C(=O)C2CCN(c3ncc(F)c(-c4c(C)cnn4C)n3)CC2)s1 [Compound 69, 1-(4-(1,4-dimethyl-1H-pyrazol-5-yl)-5-fluoropyrimidin-2-yl)-N-((2,4-dimethylthiazol-5-yl)methyl)-N-methylpiperidine-4-carboxamide]
The EC50 of the first is lower: 0.1 to 100 nM for the first, 100 to 1000 nM for the second. The first is the more potent here.

First: Cc1cnn(C)c1-c1nc(N2CCC(C(=O)NCc3cscn3)CC2)ncc1F [Compound 57, 1-(4-(1,4-dimethyl-1H-pyrazol-5-yl)-5-fluoropyrimidin-2-yl)-N-(thiazol-4-ylmethyl) piperidine-4-carboxamide]
Second: [2H]C([2H])(NC(=O)C1CCN(c2ncc(F)c(-c3c(C)cnn3C)n2)CC1)c1cc(F)cc(F)c1F [Compound 60, 1-(4-(1,4-dimethyl-1H-pyrazol-5-yl)-5-fluoropyrimidin-2-yl)-N-((2,3,5-trifluorophenyl)methyl-d2)piperidine-4-carboxamide]
The EC50 of the first is higher: 100 to 1000 nM for the first, 0.1 to 100 nM for the second.

`[2H]C([2H])(NC(=O)C1CCN(c2ncc(F)c(-c3nnc(C)s3)n2)CC1)c1cc(F)cc(F)c1F` [Compound 61, 1-(5-fluoro-4-(5-methyl-1,3,4-thiadiazol-2-yl)pyrimidin-2-yl)-N-((2,3,5-trifluorophenyl)methyl-d2)piperidine-4-carboxamide] and `CN(Cc1cc(F)cc(F)c1F)C(=O)C1CCN(c2ncc(F)c(-c3ncnn3C)n2)CC1` [Compound 68, 1-(5-fluoro-4-(1-methyl-1H-1,2,4-triazol-5-yl)pyrimidin-2-yl)-N-methyl-N-(2,3,5-trifluorobenzyl)piperidine-4-carboxamide] fall in the same range of EC50: 0.1 to 100 nM for the first, 0.1 to 100 nM for the second.

First: Cc1cnn(C)c1-c1cc(N2CCC(C(=O)NCc3nccs3)CC2)c(F)cn1 [Compound 63, 1-(2-(1,4-dimethyl-1H-pyrazol-5-yl)-5-fluoropyridin-4-yl)-N-(thiazol-2-ylmethyl)piperidine-4-carboxamide]
Second: CCN(Cc1cc(F)cc(F)c1F)C(=O)C1CCN(c2ncc(F)c(-c3c(C)cnn3C)n2)CC1 [Compound 67, 1-(4-(1,4-dimethyl-1H-pyrazol-5-yl)-5-fluoropyrimidin-2-yl)-N-ethyl-N-(2,3,5-trifluorobenzyl)piperidine-4-carboxamide]
The EC50 of the first is higher: 100 to 1000 nM for the first, 0.1 to 100 nM for the second. The second is the more potent here.

`Cc1nc(C)n(-c2nc(N3CCC(C(=O)N(C)Cc4cc(F)cc(F)c4)CC3)ncc2F)n1` [Compound 64, N-(3,5-difluorobenzyl)-1-(4-(3,5-dimethyl-1H-1,2,4-triazol-1-yl)-5-fluoropyrimidin-2-yl)-N-methylpiperidine-4-carboxamide] and `Cc1nc(C)n(-c2nc(N3CCC(C(=O)N(C)Cc4cc(F)cc(F)c4F)CC3)ncc2F)n1` [Compound 65, 1-(4-(3,5-dimethyl-1H-1,2,4-triazol-1-yl)-5-fluoropyrimidin-2-yl)-N-methyl-N-(2,3,5-trifluorobenzyl)piperidine-4-carboxamide] fall in the same range of EC50: 0.1 to 100 nM for the first, 0.1 to 100 nM for the second.
